Entries after “also recorded” stand apart in the source; their conditions may differ.

What all share (format): in vivo, rat
One experiment deals with mast cell chymase. The experiment is described as follows: Western blot of mast cell chymase in paw after carrageenan. The note with it: rats, 3 hours after carrageenan; Alda-1 versus vehicle. The method, then: (§1) Biochemical Studies In Rats and Mice. Protein was isolated from rat paw tissue at 3 hours after treatment or from liver tissue of mutant or wild type mice. Tissues were homogenized in buffer containing (Hepes 10 mM, NaCl 0.9%, EGTA 1 mM, DTPA 100 μM, Triton-X 1%, Protease and Phosphatase inhibitors (AEBSF, Aprotinin, Bestatin, E-64, Leupeptin, Pepstatin A, Sodium orthovanadate, Sodium molybdate, Sodium tartrate, Imidazole, Cantharidin, (−)-p-Bromolevamisole oxalate and Calyculin A). The samples were centrifuged at 700 g for 5 min at 4° C. Mitochondrial fraction from liver was obtained as previously described (Chen, et al. (2008) Activation of aldehyde dehydrogenase-2 reduces ischemic damage to the heart. Science 321, 1493-1495; Sun, L., et al. ALDH2 activator inhibits increased myocardial infarction injury by nitroglycerin tolerance. Sci Transl Med 3, 107ra111). Activation of aldehyde dehydrogenase-2 reduces ischemic damage to the heart. Science 2008; 321:1493-5). The protein concentration was determined in the supernatants by using Bradford (Bradford, M. M. (1976). A rapid and sensitive method for the quantitation of microgram quantities of protein utilizing the principle of protein-dye binding. Anal Biochem 72, 248-254).
(§2) Western blot analysis. […] Quantification analysis of blots was performed with Image J software, using GAPDH as a loading control.
On the technique in general: A western blot detects proteins with antibodies after separation by electrophoresis.

For a further experiment, the system named is neutrophil elastase. Put plainly: Western blot of neutrophil elastase in paw after carrageenan. To be noted: rats, carrageenan group treated with Alda-1; Western blot quantification. As to the method: as §1, §2
A further experiment has as its system acetaldehyde. Put plainly: Tissue acetaldehyde measurement in paw by LC-MS/MS. The note with it: rats, Alda-1 versus carrageenan alone. As to the method: Tissue Acetaldehyde Measurements. Paw samples were quickly sealed in microcentrifuge tubes, weighed and 3 volumes (v/w) of 0.75 mg/mL Liberase T L (Roche, Indianapolis, Ind.) was added for overnight digestion at 37° C. Acetaldehyde standard solutions (100-5000 ng/mL) and the tissue samples were reacted with saturated 2,4 dinitrophenylhydrazine solution.
To establish LC-MS/MS conditions, the standard of acetaldehyde 2,4-dinitrophenyl-hydrazine (DNPH) was used. Chromatograms of standards were used to establish characteristic retention times of acetaldehyde, and verified the MS signal was linear over the range of 0.1-5 μg/mL. The acetaldehyde peak area derivatives were calculated and plotted against the concentration of the calibration standards using Analyst®1.5.1 software.
Aliquots (30 μL) were taken from each paw homogenate sample. Acetaldehyde in samples of paw homogenate was extracted by adding methanol containing 40 μg/mL DNPH (150 μL). Both unknown samples and standards were vortexed and centrifuged to separate the precipitate. Ten microliters of sample extracts were injected into LC MS/MS for analysis. Automatic peak detection, integration and data processing were performed by the AB SCIEX Analyst 1.5.1 software package. Concentrations of acetaldehyde were calculated by plotting peak area of unknown samples against a standard curve. […]

Experiment [1] has as its system rats subjected to carrageenan insult to the right hind paw. Put plainly: Randall-Selitto paw pressure test, carrageenan-induced hyperalgesia in rats. As to the method: Rats. Male Wistar rats (170-190 g) were provided by Charles River Laboratories or Butantan Institute Animal Facility and housed in a temperature-controlled (22±1° C.) and light-controlled (12/12 h light/dark cycle) room. All rats were housed in their surrounding for at least 3 days. Groups of 5-6 rats were used.
Drugs Used. 0.1 ml saline (control), carrageenan (200 μg for rats, 100 μg for mice; Marine Colloids), or prostaglandin E2 (100 ng, Sigma) was administered by intraplantar injection into the right hind paw to induce hyperalgesia. These doses were chosen based on previous studies by our laboratory groups (Aley K O, et al., (2000) Chronic hypersensitivity for inflammatory nociceptor sensitization mediated by the epsilon isozyme of protein kinase C. The Journal of neuroscience: the official journal of the Society for Neuroscience 20: 4680-4685; Konno K, et al., (2008) Crotalphine, a novel potent analgesic peptide from the venom of the South American rattlesnake Crotalus durissus terrificus. Peptides 29: 1293-1304).
Alda-1 dose (2 mg/kg/per injection, dissolved in 50% PEG/50% DMSO) was established in preliminary studies and given in multiple doses due to its estimated short half-life. Alda-1 was injected subcutaneously to the dorsal side of the neck 15 minutes before carrageenan or saline, and again at 30 and 150 minutes after carrageenan, prostaglandin E2 or saline injection. One subset of animals received Alda-1 only 30 and 150 minutes after carrageenan injection. Where indicated, naloxone (1 mg/kg per injection) or vehicle (saline) was given 10 minutes prior to each Alda-1 treatment to the dorsal side of the neck.
Nociception Assessment. The experimental performer was blinded to both genotype and/or treatments. Nociceptive response was assessed by the von Frey method for mice and the Randall-Selitto method for rats immediately before and 180 minutes after carrageenan or prostaglandin E2 injection. Both mice and rats were acclimated to the testing equipment one day before baseline testing.
Randall-Selitto method: Nociceptive threshold was determined using the Randall-Selitto paw pressure test (Ugo-Basile), as previously described (Gutierrez V P, et al., (2008) Crotalphine induces potent antinociception in neuropathic pain by acting at peripheral opioid receptors. European journal of pharmacology 594: 84-92). The baseline values varied between 65-75 g of force. Animals with baseline out of this range (about 10%) were excluded prior to initiating the study in order to achieve uniform testing.

Experiment [2] concerns carrageenan-induced edema. The experiment is described as follows: Edema assessment of the carrageenan-injected paw (plethysmometer). The note with it: rats, 3 hr after carrageenan; Alda-1-treated versus vehicle-treated. The method, then: Edema Assessment. Inflammation-induced edema of the injected paw was assessed using a plethysmometer (Ugo Basile) (Clapper J R, et al., (2010) Anandamide suppresses pain initiation through a peripheral endocannabinoid mechanism. Nature neuroscience 13: 1265-1270; Van Arman C G, et al., (1965) Some details of the inflammation caused by yeast and carragenin. J Pharmacol Exp Ther 150: 328-333).
In general terms: Carrageenan injected into the paw causes an acute inflammation.

For the compound `O=C(NCc1ccc2c(c1)OCO2)c1c(Cl)cccc1Cl` [Alda-1, N-(1,3-benzodioxol-5-ylmethyl)-2,6-dichlorobenzamide], the “Mast cell chymase level in the paw” value in the experiment on mast cell chymase is “no differences; also recorded: increased equally”. For the same compound, the “Neutrophil elastase (marker of inflammation)” value in the experiment on neutrophil elastase came out at 220±26. For the same compound, the “Decrease of the level of acetaldehyde in paw” value with acetaldehyde (carrageenan-induced hyperalgesia) is recorded as around 50%. The “Carrageenan-induced acetaldehyde levels in inflamed paw (FIG. 2F)” value in the experiment with acetaldehyde (P<0.05) is given as “significantly reduced”. In addition, in experiment [1] (Alda-1 2 mg/kg s.c. only 30 and 150 minutes after carrageenan, Randall-Selitto, P<0.0001, 2 mg/kg), the “Nociceptive threshold when Alda-1 is given after the insult” value was “increased the nociceptive threshold; also recorded: significantly increased nociceptive threshold”. Further, in experiment [1] (carrageenan insult, Alda-1 2 mg/kg s.c., 3 hours after insult, P<0.001), the “Nociceptive threshold (FIG. 1B)” value was “significantly increased nociceptive threshold”. Further, the “Increase of nociceptive threshold” value in experiment [1] (carrageenan-induced model, Alda-1 2 mg/kg s.c. 15 min before and 30 and 150 min after insult, tested 3 hours after insult) was found to be 2 fold. Also, the “Reduction of carrageenan-induced hyperalgesia compared with atenolol or celecoxib” value in experiment [1] (comparison to previous publication using the same rat hyperalgesia model (Chacur et al, 2003)) is recorded as “more effective than atenolol or celecoxib”. Further, the “Effect of Alda-1 on nociceptive threshold in the presence of naloxone” value in experiment [1] (naloxone 1 mg/kg s.c. 10 minutes before each Alda-1 treatment, Alda-1 after carrageenan) is given as “not blunted”. Further, the “Carrageenan-induced increase in paw diameter (edema)” value in experiment [2] was “no differences; also recorded: unaffected”.

The values are drawn from patent US9545393B2, “Methods and compositions for treating pain” (The Board of Trustees of the Leland Stanford Junior …, priority 2012, dated 2017).
